In brackets after ≈: the same amount, converted by molar mass.

Experiment [1] relates to methicillin-sensitive Staphylococcus aureus. Kind of experiment: MIC by broth micro-dilution (CLSI), methicillin-sensitive S. aureus. As to conditions: Staphylococcus aureus, ATCC 29213 / MSSA, MSSA S. aureus ATCC29213; read-out: MIC. The experiment is classed as cell-based.
Experiment [2] has as its system carbapenemase producing K. pneumoniae. Kind of experiment: MIC by broth micro-dilution (CLSI), carbapenemase producing K. pneumoniae. In kind it is cell-based, Klebsiella pneumoniae. To be noted: Klebsiella pneumoniae, ATCCBAA1705, KPC-2 K. pneumoniae ATCC BAA-1705; read-out: MIC.
The test system of experiment [3] is carbapenem sensitive Escherichia coli. The experiment is described as follows: MIC by broth micro-dilution (CLSI), carbapenem sensitive E. coli. In kind it is cell-based. To be noted: Escherichia coli, ATCC25922, ESBL −ve E. coli ATCC25922; read-out: MIC. (In general: Broth dilution looks for growth in wells or tubes with falling amounts of substance.)
Experiment [4] relates to carbapenem sensitive Pseudomonas aeruginosa. The experiment is described as follows: MIC by broth micro-dilution (CLSI), carbapenem sensitive P. aeruginosa. To be noted: Pseudomonas aeruginosa, ATCC27853, Meropenem susceptible P. aeruginosa ATCC27853; read-out: MIC. In kind it is cell-based.

One may read the MIC as the lowest concentration found to suppress growth. In the case of `C[C@@H](NC(=O)Cn1cnnn1)[C@H]1C(=O)N2C(C(=O)O)=C(S[C@@H]3CN[C@H](C(=O)N4C[C@@H](N)C[C@H]4CO)C3)[C@H](C)[C@H]12` [Example 412, (4R,5S,6R)-6-((R)-1-(2-(1H-tetrazol-1-yl)acetamido)ethyl)-3-((3S,5S)-5-((2S,4S)-4-amino-2-(hydroxymethyl)pyrrolidine-1-carbonyl)pyrrolidin-3-ylthio)-4-methyl-7-oxo-1-azabicyclo[3.2.0]hept-2-ene-2-carboxylic acid], the minimal inhibitory concentration (MIC) in experiment [1] was 2 µg/mL (≈ 3.55 µM); in experiment [2] it was 2 µg/mL (≈ 3.55 µM); in experiment [3] it was 0.25 µg/mL (≈ 0.444 µM); in experiment [4], 1 µg/mL (≈ 1.77 µM).
Take `C[C@@H](NC(=O)Cn1cnnn1)[C@H]1C(=O)N2C(C(=O)O)=C(S[C@@H]3CN[C@H](C(=O)N4CC(N)C(N)C4)C3)[C@H](C)[C@H]12` (stereo partly drawn) [Example 413, (4R,5S,6R)-6-((R)-1-(2-(1H-tetrazol-1-yl)acetamido)ethyl)-3-((3S,5S)-5-(3,4-diaminopyrrolidine-1-carbonyl)pyrrolidin-3-ylthio)-4-methyl-7-oxo-1-azabicyclo[3.2.0]hept-2-ene-2-carboxylic acid]: the minimum inhibitory concentration (MIC) came out at 2 µg/mL (≈ 3.65 µM) in experiment [1], 2 µg/mL (≈ 3.65 µM) in experiment [2], 0.25 µg/mL (≈ 0.456 µM) in experiment [3] and 2 µg/mL (≈ 3.65 µM) in experiment [4].
For `C[C@@H](NC(=O)Cn1cnnn1)[C@H]1C(=O)N2C(C(=O)O)=C(S[C@@H]3CN[C@H](C(=O)N4C[C@H](N)[C@@H](O)C4)C3)[C@H](C)[C@H]12` [Example 414, (4R,5S,6R)-6-((R)-1-(2-(1H-tetrazol-1-yl)acetamido)ethyl)-3-((3S,5S)-5-((3S,4S)-3-amino-4-hydroxypyrrolidine-1-carbonyl)pyrrolidin-3-ylthio)-4-methyl-7-oxo-1-azabicyclo[3.2.0]hept-2-ene-2-carboxylic acid], the minimal inhibitory concentration (MIC) in experiment [1] came out at 4 µg/mL (≈ 7.28 µM); in experiment [2] it was 2 µg/mL (≈ 3.64 µM); in experiment [3], 0.5 µg/mL (≈ 0.91 µM); in experiment [4] it was 4 µg/mL (≈ 7.28 µM).
Regarding `C[C@@H](NC(=O)Cn1cnnn1)[C@H]1C(=O)N2C(C(=O)O)=C(SCCN)[C@H](C)[C@H]12` [Example 415, (4R,5S,6R)-6-((R)-1-(2-(1H-tetrazol-1-yl)acetamido)ethyl)-3-(2-aminoethylthio)-4-methyl-7-oxo-1-azabicyclo[3.2.0]hept-2-ene-2-carboxylic acid], the MIC in experiment [1] was 4 µg/mL (≈ 10.1 µM); in experiment [2], 1 µg/mL (≈ 2.53 µM); in experiment [3], 2 µg/mL (≈ 5.06 µM); in experiment [4], 16 µg/mL (≈ 40.5 µM).
For `C[C@@H](NC(=O)Cn1cnnn1)[C@H]1C(=O)N2C(C(=O)O)=C(S[C@@H]3CN[C@H](C(=O)N4CCN(CCO)CC4)C3)[C@H](C)[C@H]12` [Example 416, (4R,5S,6R)-6-((R)-1-(2-(1H-tetrazol-1-yl)acetamido)ethyl)-3-((3S,5S)-5-(4-(2-hydroxyethyl)piperazine-1-carbonyl)pyrrolidin-3-ylthio)-4-methyl-7-oxo-1-azabicyclo[3.2.0]hept-2-ene-2-carboxylic acid] the same measures were 4 µg/mL (≈ 6.92 µM), 2 µg/mL (≈ 3.46 µM), 0.5 µg/mL (≈ 0.866 µM) and 8 µg/mL (≈ 13.8 µM).
For `C[C@@H](NC(=O)Cn1cnnn1)[C@H]1C(=O)N2C(C(=O)O)=C(S[C@@H]3CN[C@H](C(=O)N4CCN(CC(N)=O)CC4)C3)[C@H](C)[C@H]12` [Example 417, (4R,5S,6R)-6-((R)-1-(2-(1H-tetrazol-1-yl)acetamido)ethyl)-3-((3S,5S)-5-(4-(2-amino-2-oxoethyl)piperazine-1-carbonyl)pyrrolidin-3-ylthio)-4-methyl-7-oxo-1-azabicyclo[3.2.0]hept-2-ene-2-carboxylic acid] the same measures were 8 µg/mL (≈ 13.5 µM), 2 µg/mL (≈ 3.39 µM), 0.5 µg/mL (≈ 0.847 µM) and 16 µg/mL (≈ 27.1 µM).
For `C[C@@H](NC(=O)Cn1cnnn1)[C@H]1C(=O)N2C(C(=O)O)=C(S[C@@H]3CN[C@H](C(=O)N4CCC5(CCCCN5)CC4)C3)[C@H](C)[C@H]12` [Example 418, (4R,5S,6R)-3-((3S,5S)-5-(1,9-diazaspiro[5.5]undecane-9-carbonyl)pyrrolidin-3-ylthio)-6-((R)-1-(2-(1H-tetrazol-1-yl)acetamido)ethyl)-4-methyl-7-oxo-1-azabicyclo[3.2.0]hept-2-ene-2-carboxylic acid] the same measures were 8 µg/mL (≈ 13.3 µM), 4 µg/mL (≈ 6.65 µM), 1 µg/mL (≈ 1.66 µM) and 8 µg/mL (≈ 13.3 µM).
In the case of `C[C@@H](NC(=O)Cn1cnnn1)[C@H]1C(=O)N2C(C(=O)O)=C(S[C@@H]3CN[C@H](C(=O)N4CCN(C(=O)CCN)CC4)C3)[C@H](C)[C@H]12` [Example 419, (4R,5S,6R)-6-((R)-1-(2-(1H-tetrazol-1-yl)acetamido)ethyl)-3-((3S,5S)-5-(4-(3-aminopropanoyl)piperazine-1-carbonyl)pyrrolidin-3-ylthio)-4-methyl-7-oxo-1-azabicyclo[3.2.0]hept-2-ene-2-carboxylic acid], the MIC in experiment [1] came to 4 µg/mL (≈ 6.61 µM); in experiment [2], 1 µg/mL (≈ 1.65 µM); in experiment [3], 0.25 µg/mL (≈ 0.413 µM); in experiment [4], 1 µg/mL (≈ 1.65 µM).
With `C[C@@H](NC(=O)Cn1cnnn1)[C@H]1C(=O)N2C(C(=O)O)=C(S[C@@H]3CN[C@H](C(=O)N4CCN(C(=O)[C@@H](N)CO)CC4)C3)[C@H](C)[C@H]12` [Example 420, (4R,5S,6R)-6-((R)-1-(2-(1H-tetrazol-1-yl)acetamido)ethyl)-3-((3S,5S)-5-(4-((S)-2-amino-3-hydroxypropanoyl)piperazine-1-carbonyl)pyrrolidin-3-ylthio)-4-methyl-7-oxo-1-azabicyclo[3.2.0]hept-2-ene-2-carboxylic acid], the MIC in experiment [1] was found to be 4 µg/mL (≈ 6.44 µM); in experiment [2] it was 1 µg/mL (≈ 1.61 µM); in experiment [3], 0.25 µg/mL (≈ 0.403 µM); in experiment [4], 2 µg/mL (≈ 3.22 µM).
Consider `C[C@@H](NC(=O)Cn1cnnn1)[C@H]1C(=O)N2C(C(=O)O)=C(S[C@@H]3CN[C@H](C(=O)N4CCC(CNC(=O)CN)CC4)C3)[C@H](C)[C@H]12` [Example 422, (4R,5S,6R)-6-((R)-1-(2-(1H-tetrazol-1-yl)acetamido)ethyl)-3-((3S,5S)-5-(4-((2-aminoacetamido)methyl)piperidine-1-carbonyl)pyrrolidin-3-ylthio)-4-methyl-7-oxo-1-azabicyclo[3.2.0]hept-2-ene-2-carboxylic acid], for which the MIC in experiment [1] was found to be 4 µg/mL (≈ 6.46 µM); in experiment [2], 2 µg/mL (≈ 3.23 µM); in experiment [3], 0.25 µg/mL (≈ 0.404 µM); in experiment [4] it was 4 µg/mL (≈ 6.46 µM).
Turning to `C[C@@H](NC(=O)Cn1cnnn1)[C@H]1C(=O)N2C(C(=O)O)=C(S[C@@H]3CN[C@H](C(=O)N4CCC(CO)CC4)C3)[C@H](C)[C@H]12` [Example 423, (4R,5S,6R)-6-((R)-1-(2-(1H-tetrazol-1-yl)acetamido)ethyl)-3-((3S,5S)-5-(4-(hydroxymethyl)piperidine-1-carbonyl)pyrrolidin-3-ylthio)-4-methyl-7-oxo-1-azabicyclo[3.2.0]hept-2-ene-2-carboxylic acid], the MIC in experiment [1] worked out at 8 µg/mL (≈ 14.2 µM); in experiment [2] it was 2 µg/mL (≈ 3.55 µM); in experiment [3], 0.5 µg/mL (≈ 0.889 µM); in experiment [4], 32 µg/mL (≈ 56.9 µM).
